Experimental data reported in patent publication US4680382A, “Analogues of actinomycin D” (priority 1986, dated 1987).
Values joined by “and” are separate entries in the source; they are usually repeats but may differ in a detail not shown here. Identical values can stand only once. *1 amine or outer side, *2 acyl side, *3 side chain or, on linkers, in order; H or OH if unused. Where a SMILES comes first, the peptide text is derived from it. Bridges are numbered along the chain shown (N, C = ends). Roman numbers before positions name the chains, in order. [ ]: non-standard residue; d: D form. Actinocin(9to1) = Cc1c2oc3c(C)ccc(C(=O)[*:1])c3nc-2c(C(=O)[*:2])c(N)c1=O; NMeV = CN[C@H](C(=O)O)C(C)C; Sar = CNCC(=O)O

How the values were obtained:
B16 melanoma = assay: In vivo antitumor activity against B16 melanoma; set-up: species or system BDF1 mice; conditions: for % ILS / surv (survivors on day 65/total injected) / MST (range): at optimal dose; for MST (range): control 29 (20-48); for optimal dose: ip, days 1, 5, 9
Procedure: AMD-OZL analogues 9a and 10a were about as active as AMD and 7-hydroxy-AMD. The potencies of these analogues are reduced in comparison to that of AMD; their optimal doses were higher than that of AMD.
^a 0.2 mL of 1:5 (weight/volume) brei of B16 melanoma implanted
ip on day 0 in groups of nine BDF1 mice. Drugs administered ip.
^b MST (range) median survival time in days (range of individual
^c % ILS (surv), percent increase in lifespan (survivors on day

rat hepatic microsomes = assay: Stimulation of adrenochrome formation (superoxide generation) in rat hepatic microsomal incubations; conditions: for adrenochrome formation: 480 nm, 37° C., no more than 100 μM drug, basal 2.11 ± 0.11; for adrenochrome formation / percentage stimulation of adrenochrome formation over basal rate: no SOD; for adrenochrome formation in presence of SOD: SOD (superoxide dismutase) 5 μg/mL added
[1] = Metabolism of tritiated drugs by rat liver microsomes with NADPH-generating system; format: in vitro ADME; conditions: for Percent isolated: unconverted: 37° C.
Procedure: A method of using tumor cell sonicates was developed to study the metabolism of the analogues of AMD. By use of sonicated cells, the dilution effects that would occur if flasks of cultured cells were used are avoided. Although the cells are disrupted by this method, their enzyme systems appear to remain active. Large numbers of tumor cells (P388 murine leukemia) were sonicated in Earle's balanced salt solution (EBSS) and were incubated with tritiated AMD and its analogues 7a and 9a (Table II) for 16 hr. In another experiment, the analogues were treated with rat hepatic microsomes at 37° C. for 6 hr in the presence of a NADPH-generating system. The metabolic products were isolated and identified with the following results (Table II). […] In the microsomes, the major metabolites were in unconjugated forms; in the tumor cell homogenates, the major identified metabolites were glucuronide and sulfate conjugated forms. It should be pointed out that in these metabolic experiments, the identification of these glucuronide and/or sulfate conjugates was made only on the basis of the disappearance of the peaks from the HPLC chromatograms upon treatment with deconjugating enzymes glucarase.
The incubation mixture consisted of 500 μg of microsomal protein 1.6 mM NADP^+, 16 mM glucose 6-phosphate, 10.1 U of glucose-6-phosphate dehydrogenase, 12 mM MgCl2, 10 mM sodium phosphate-potassium phosphate (pH 7.4) and 0.4-0.8 mM of tritiated drugs (including AMD) in a final volume of 5.0 mL. The mixtures were incubated at 37° C. for 6 hr, after which the reaction was stopped by chilling at 0° C. The chilled mixtures were filtered by centrifugation in tubes containing centriflow membrane cones (Amicon, 1053, molecular weight cut-off 25000). The filtrates were adjusted to pH 5.0 before extraction with water-saturated ethyl acetate (step A).
Equal aliquots of the aqueous layer (step A) were treated either with equal volumes of glucarase (5 mg/mL) in 0.05M acetate buffer, pH 5.0, overnight at 37° C. under nitrogen in a shaking water bath or with buffer alone (step B). The aqueous fractions from step B were mixed with an extract of the Amicon cone-retained material. The metabolites at each step were separated by HPLC (Table II). For extraction of the high molecular weight protein conjugates and other tissue-associated materials, the cones were soaked in 0.1N NaOH solution overnight at 0° C. and were processed as in the preceding section before gel filtration. A Sephacryl S-200 superfine column, 1.0× 60 cm, was made in 6M guanidine hydrochloride, pH 5.0, and the lyophilized material in minimum water, pH 7.0, was added to the top of the column and eluted overnight with 6M guanidine hydrochloride, pH 5.0, at a flow rate of 2 cm/hr. A 2% solution of blue dextran 2000 (100 μL, Pharmacia) was added to the column for calibration. Fractions were collected, and the distribution of the material in the fractions was determined by liquid scintillation counting. […] For assay of metabolites, a Varian Moden 5020 gradient liquid chromatograph equipped with a CD-111L chromatography data system was used.

P388 cells [2] = assay: Inhibition of DNA synthesis (methyl-[3H]thymidine incorporation) in P388 cells; format: cell-based, murine; conditions: 50% reduction in 1 hr of methyl-[3H]thymidine incorporation, read-out: IC50 DNA synth
Procedure: (§1) Experiments for inhibition of nucleic acid synthesis in tumor cells in vitro were carried out with P388 tumor cells, details of which were reported by Sengupta et al, J. Med. Chem., 18, 1175 (1975). […] AMD-OZLs inhibit either process with equal activity and with the potency of its metabolite 7-hydroxy-AMD.
^c IC50 (DNA) = concentration of inhibitor in μM required to
cause 50% reduction (in 1 hr) in methyl[^3 H]thymidine incorporation
into acid precipitable material with use of P388 cells.

P388 cells [3] = assay: Inhibition of RNA synthesis (2-[14C]uridine incorporation) in P388 cells; format: cell-based, murine; conditions: for IC50: 50% reduction in 1 hr of 2-[14C]uridine incorporation, read-out: IC50 RNA synth; for IC50 DNA/IC50 RNA: ratio
Procedure: as §1
^b IC50 (RNA) = concentration of inhibitor in μM required to
cause 50% reduction (in 1 hr) in 2[^14 C]uridine incorporation into
acid precipitable material with use of P388 cells.

P388 Leukemia = assay: Minimum effective dose and therapeutic index vs. P388 leukemia; format: in vivo; conditions: dose giving 45% increase in life span in P388 tumor bearing mice; ip days 1, 5 and 9
Procedure: These analogues were also tested in tumor-free BDF1 male mice for determination of their MTD values (Table VIII). The animals (18-22 g) were given a broad range of doses of drugs in 5% dimethyl sulfoxide-saline on days 1, 5 and 9. Drugs were administered ip and the maximum tolerated doses of agents which caused death in only 10% of the tested animals in 21 days (i.e., LD10) were recorded as MTD. […] However, the MED values of 7-hydroxy-AMD and its precursor AMD-OZL 10a are high and are seven to tenfold of the MED values of 4a and 8a. On the basis of these MED values, the therapeutic indices of 8a and 4a are 70 and 96. The therapeutic index of 2a is 13, of 10a 10, and of AMD only 4.
^a Drugs administered ip once on days 1, 5 and 9 starting 1 day after
tumor implantation. Determinations were made from analysis of plotted
^b MED (minimum effective dose) is the dose (milligram/kilogram)
providing an increase in life span of 45% over control in P388 tumor

P388/ADR = assay: In vivo activity against P388/adriamycin-resistant leukemia; set-up: species or system BDF1 mice; conditions: for P388/ADR optimal dose: ip, days 1, 5 and 9
Procedure: (§2) ^a Male BDF1 mice inoculated ip: 10^6 cells inoculum, day 0.
(§3) Drugs administered in 10% dimethyl sulfoxidesaline on days 1, 5 and 9. %
(§4) ILS = percent increase in life span. Fractions in parentheses = tumorfree
(§5) survivors/total on day 60. P388/S (adriamycin sensitive) and P388/ADR
(§6) (adriamycin resistant) tumors were evaluated in the same experiment with […]

P388/S = assay: In vivo activity against P388/S (adriamycin sensitive) leukemia, Table VII; set-up: species or system BDF1 mice; conditions: for P388/S % ILS / P388/S tumor-free survivors/total on day 60: at optimal dose; for P388/S optimal dose: ip, days 1, 5 and 9
Procedure: as §2, §3, §4, §5, §6

| Structure (SMILES) | % ILS (B16 melanoma) | surv (survivors on day 65/total injected) (B16 melanoma) | MST (range) (B16 melanoma) | optimal dose (B16 melanoma) | adrenochrome formation (rat hepatic microsomes) | adrenochrome formation in presence of SOD (rat hepatic microsomes) | percentage stimulation of adrenochrome formation over basal rate (rat hepatic microsomes) | Percent isolated: "tissue" bound ([1]; rat liver microsomes (M), 6 hr) | Percent isolated: protein conjugates ([1]; rat liver microsomes (M), 6 hr) | Percent isolated: unidentified metabolite ([1]; rat liver microsomes (M), 6 hr) | Percent isolated: unconverted ([1]; rat liver microsomes (M), 6 hr) | IC50 (P388 cells [2]) | IC50 (P388 cells [3]) | IC50 DNA/IC50 RNA (P388 cells [3]) | MED (minimum effective dose) (P388 Leukemia) | P388/ADR % ILS (P388/ADR; at optimal dose) | P388/ADR optimal dose (P388/ADR) | P388/S % ILS (P388/S) | P388/S tumor-free survivors/total on day 60 (P388/S) | P388/S optimal dose (P388/S) | also measured |
| --- | --- | --- | --- | --- | --- | --- | --- | --- | --- | --- | --- | --- | --- | --- | --- | --- | --- | --- | --- | --- | --- |
| Cc1nc2c(C(=O)NC3C(=O)NC(C(C)C)C(=O)N4CCCC4C(=O)N(C)CC(=O)N(C)C(C(C)C)C(=O)OC3C)c3nc4c(C(=O)NC5C(=O)NC(C(C)C)C(=O)N6CCCC6C(=O)N(C)CC(=O)N(C)C(C(C)C)C(=O)OC5C)cc(=O)c(C)c-4oc3c(C)c2o1 (stereo not shown) [9a] | 55% | 1/9 | 45 (32-55) days | 750 μg/kg per inj | 4.36 ± 0.21 nmol min^-1 (mg of protein)^-1 | inhibited | 106% | 5.5% | 9.5% | 6% | 38.5% |  |  |  |  |  |  |  |  |  | Percent metabolite isolated: 2a glucuronide and/or sulfate ([1]; rat liver microsomes (M), 6 hr): nil; Percent metabolite isolated: 7-hydroxy-AMD (2a) ([1]; rat liver microsomes (M), 6 hr): 40.5% |
| Cc1nc2c(C(=O)NC3C(=O)NC(C(C)C)C(=O)N4CCCC4C(=O)N(C)CC(=O)N(C)C(C(C)C)C(=O)OC3C)c3nc4c(C(=O)NC5C(=O)NC(C(C)C)C(=O)N6CCCC6C(=O)N(C)CC(=O)N(C)C(C(C)C)C(=O)OC5C)c(N)c(=O)c(C)c-4oc3c(C)c2o1 [7a, 7-Amino-2,9,11-trimethyl-8H-8-oxooxazolo [4,5-b]phenoxazine 4,6-bis[carbonyl-L-threonyl-D-valyl-L-prolylsarcosyl-L-N-methylvaline-(threonine hydroxyl)] lactone] | 90% | 3/9 | 55 (33-57) days | 300 μg/kg per inj | 6.04 ± 0.19 nmol min^-1 (mg of protein)^-1 | inhibited | 186% | 3.7% | 3.5% | 8.5% | 21% | 1010 nM | 90 nM | 11.22 |  |  |  |  |  |  | Percent metabolite isolated: 4a glucuronide and/or sulfate ([1]; rat liver microsomes (M), 6 hr): nil; Percent metabolite isolated: "symmetrical" AMD (4a) ([1]; rat liver microsomes (M), 6 hr): 62.5% |
| Cc1c2oc3c(C)ccc(C(=O)N[C@@H]4C(=O)N[C@H](C(C)C)C(=O)N5CCC[C@H]5C(=O)N(C)CC(=O)N(C)[C@@H](C(C)C)C(=O)O[C@@H]4C)c3nc-2c(C(=O)N[C@@H]2C(=O)N[C@H](C(C)C)C(=O)N3CCC[C@H]3C(=O)N(C)CC(=O)N(C)[C@@H](C(C)C)C(=O)O[C@@H]2C)c(N)c1=O [AMD, Actinomycin D] (I: T[dV]P[Sar][NMeV] / II: T[dV]P[Sar][NMeV]; ester I:1-I:C, II:1-II:C; linker I:N-II:N via Actinocin(9to1)) | 48% | 2/9 | 43 (36-54) days | 250 μg/kg per inj | 2.29 ± 0.33 nmol min^-1 (mg of protein)^-1 | inhibited | 8.5% |  |  |  | 100% | 1120 nM | 50 nM | 22 and 22.40 | 0.0625 milligram/kilogram | 22% | 0.25 mg/kg | 132% | 1/8 | 0.25 mg/kg | formation of metabolite or conjugate ([1]; tumor cell homogenate and rat liver microsomes): did not form any detectable metabolite or conjugate |
| Cc1c2oc3c(C)c(O)c(N)c(C(=O)NC4C(=O)NC(C(C)C)C(=O)N5CCCC5C(=O)N(C)CC(=O)N(C)C(C(C)C)C(=O)OC4C)c3nc-2c(C(=O)NC2C(=O)NC(C(C)C)C(=O)N3CCCC3C(=O)N(C)CC(=O)N(C)C(C(C)C)C(=O)OC2C)c(N)c1=O (stereo not shown) [4a, 7-Hydroxy-8-amino-actinomycin D] | 96% | 4/9 | 57 (33-61) days | 300 μg/kg per inj | 19.3 ± 1.04 nmol min^-1 (mg of protein)^-1 | inhibited | 815% |  |  |  |  | 1110 nM | 1150 nM | 0.97 | 0.025 milligram/kilogram | 176% | 1.2 mg/kg | 382% | 4/8 | 0.6 mg/kg | P388/ADR tumor-free survivors/total on day 60 (P388/ADR; at optimal dose): 3/8 |
